Measured values reported in patent US8742082B2, “Compositions and methods for influencing satiety, lipid metabolism, and fat utilization” (Nestec S.A., priority 2008, dated 2014).

How the values were obtained:
Type in all cases: in vivo
[1] = tested on: AcylCoA oxidase (ACO); experiment: Real-time PCR gene expression in peripheral tissues: ACO; conditions: liver; C57bl6j mice, high fat diet, 100 mg/kg/body weight in diet, 5 weeks
Procedure: (§1) The expression of 45 genes was measured by real-time PCR in peripheral tissues to identify genes that were differentially expressed in response to oral administration of oleoylethanolamide (OEA) or a non-hydrolysable OEA analog (KDS 5104), which affect satiety, lipid metabolism, fat utilization, food intake, and body fat mass.
(§2) Animals, diet, and experimental design. Adult male C57bl6j mice purchased at 8 weeks of age were individually housed and maintained ad libitum on high fat diet and water for 2 weeks. Seven mice were randomly allocated in 3 groups and fed with a high fat diet (lipids represented 50% of daily energy) for 2 weeks. […]
(§3) RNA extraction and gene expression. […] The RNA concentration was determined on nanodrop from the absorbance at 260 nm. […] Real-time quantitative PCR (RT-qPCR) were performed on cDNA obtained as described above using a high through put system (Biomek 3000, Beckman & Coulter, Fullerton, USA) and a Lightcycler 480 (Roche/Hitachi, Basel, Switzerland) with SYBR Green Master mix+kit (Eurogentec, Philadelphia, USA). […] Values were expressed as ratio of RNA levels relative to control mice (diets with 0 mg of OEA/kg/body weight) using ΔΔ(Ct) (Livak K J & Schmittgen T D, 2001, Methods 25:402-8). Gene expression of the following genes was measured (abbreviation and GenBank Accession shown in parentheses). […]

[2] = tested on: Cannabinoid receptor 1 (CB 1); experiment: Real-time PCR gene expression in peripheral tissues: CB1; conditions: C57bl6j mice, high fat diet, 100 mg/kg/body weight in diet, 5 weeks
Procedure: as §1
(§4) Animals, diet, and experimental design. Adult male C57bl6j mice purchased at 8 weeks of age were individually housed and maintained ad libitum on high fat diet and water for 2 weeks. Seven mice were randomly allocated in 3 groups and fed with a high fat diet (lipids represented 50% of daily energy) for 2 weeks. For one kilogram, the composition of the high fat diet was: 235 g casein, 201 g saccharose, 3.5 g L-cystine, 85 g starch, 116 g maltodextrin, 60 g cellulose, 12 g vitamins mix (AIN-93M, UPAE, Jouy-en-Josas, France), 51.5 g mineral mix (AIN-93Vx, UPAE, Jouy-en-Josas, France), and 236 g lard. Then, either OEA or KDS 5104 was added to the diet at a concentration of 100 mg/kg/body weight. The mice were kept under treatment for 5 weeks.
(§5) Sampling. At the end of the experimental period, mice were sacrificed by blood drawing (cardiac puncture) after anesthesia with isoflurane. Plasma was obtained by centrifugation (1,000 g for 10 min at 4° C.). Mesenteric, epididymal, inguinal and peritoneal adipose depots, as well as liver, stomach, small intestine mucosa, pancreas, and gastrocnemian muscle were removed and frozen into liquid nitrogen. Plasma, urine, feces, and organ samples were kept at −80° C. until analysis.
(§6) RNA extraction and gene expression. Total RNA from liver, intestine mucous membrane, adipose tissues, gastrocnemian muscle, pancreas and stomach were extracted with TRIzol reagent (Invitrogen, Carlsbad, USA) according to the manufacturer's instruction. The RNA concentration was determined on nanodrop from the absorbance at 260 nm. Retro-transcription PCRs to synthesize cDNA were performed using an Applied Biosystem Thermal Cycler 2720 and Superscript II (Invitrogen, Carlsbad, USA) according to manufacturer's protocol. Real-time quantitative PCR (RT-qPCR) were performed on cDNA obtained as described above using a high through put system (Biomek 3000, Beckman & Coulter, Fullerton, USA) and a Lightcycler 480 (Roche/Hitachi, Basel, Switzerland) with SYBR Green Master mix+kit (Eurogentec, Philadelphia, USA). Primers for the selected genes were generated using online informatics assistance from the Lightcycler manufacturer (Roche). Databases used to identify the genes were (1) the NCBI database (GenBank) and (2) the IHOP (Information Hyperlinked over Protein) database (www.ihop-net.org/UniPub/iHOP/bng/). Values were expressed as ratio of RNA levels relative to control mice (diets with 0 mg of OEA/kg/body weight) using ΔΔ(Ct) (Livak K J & Schmittgen T D, 2001, Methods 25:402-8). Gene expression of the following genes was measured (abbreviation and GenBank Accession shown in parentheses).
(§7) Statistical analysis. […] Statistical analysis of physiological parameters and gene expression data was performed by one-way ANOVA on Statview software (SAS Institute, Cary, USA). Daily food intake was analyzed using two-way ANOVA on Statview software. Statistical significance was set up at the P<0.05 level, the P<0.01 level and the P<0.001 level. For statistical analysis of the gene expression data, values were calculated relative to 18S expression for each mouse and gene.

[3] = tested on: overall gene expression pattern; experiment: Multivariate statistical analysis of overall gene expression pattern; conditions: C57bl6j mice, high fat diet, 100 mg/kg/body weight in diet, 5 weeks
Procedure: as §1, §2, §3

[4] = tested on: Visfatin; experiment: Real-time PCR gene expression in peripheral tissues: visfatin; conditions: C57bl6j mice, high fat diet, 100 mg/kg/body weight in diet, 5 weeks
Procedure: as §1, §4, §5
(§8) RNA extraction and gene expression. Total RNA from liver, intestine mucous membrane, adipose tissues, gastrocnemian muscle, pancreas and stomach were extracted with TRIzol reagent (Invitrogen, Carlsbad, USA) according to the manufacturer's instruction. The RNA concentration was determined on nanodrop from the absorbance at 260 nm. […] Real-time quantitative PCR (RT-qPCR) were performed on cDNA obtained as described above using a high through put system (Biomek 3000, Beckman & Coulter, Fullerton, USA) and a Lightcycler 480 (Roche/Hitachi, Basel, Switzerland) with SYBR Green Master mix+kit (Eurogentec, Philadelphia, USA). […] Values were expressed as ratio of RNA levels relative to control mice (diets with 0 mg of OEA/kg/body weight) using ΔΔ(Ct) (Livak K J & Schmittgen T D, 2001, Methods 25:402-8). Gene expression of the following genes was measured (abbreviation and GenBank Accession shown in parentheses).
(§9) Statistical analysis. […] Daily food intake was analyzed using two-way ANOVA on Statview software. […] For statistical analysis of the gene expression data, values were calculated relative to 18S expression for each mouse and gene.

[5] = tested on: Sterol regulatory element binding protein-c 1 (SREBP 1c); experiment: Real-time PCR gene expression in peripheral tissues: SREBP1c; conditions: C57bl6j mice, high fat diet, 100 mg/kg/body weight in diet, 5 weeks
Procedure: as §1, §4, §5, §6, §7

[6] = tested on: Uncoupling protein 2 (UCP2); experiment: Real-time PCR gene expression in peripheral tissues: UCP2; conditions: muscle; C57bl6j mice, high fat diet, 100 mg/kg/body weight in diet, 5 weeks
Procedure: as §1, §2, §3

[7] = tested on: Protein convertase subtilisin/kexin type 9 (PCSK 9); experiment: Real-time PCR gene expression in peripheral tissues: PCSK9; conditions: liver; C57bl6j mice, high fat diet, 100 mg/kg/body weight in diet, 5 weeks
Procedure: as §1, §2, §3

[8] = tested on: Stearoyl-Coenzyme A desaturase 1 (SCD 1); experiment: Real-time PCR gene expression in peripheral tissues: SCD1; conditions: C57bl6j mice, high fat diet, 100 mg/kg/body weight in diet, 5 weeks
Procedure: as §1, §4, §5, §6, §7

[9] = tested on: Fatty acid amide hydrolase (FAAH); experiment: Real-time PCR gene expression in peripheral tissues: FAAH; conditions: C57bl6j mice, high fat diet, 100 mg/kg/body weight in diet, 5 weeks
Procedure: as §1, §4, §5, §6, §7

[10] = tested on: Sterol regulatory element binding protein-C 2 (SREBP2 1); experiment: Real-time PCR gene expression in peripheral tissues: SREBP2; conditions: liver; C57bl6j mice, high fat diet, 100 mg/kg/body weight in diet, 5 weeks
Procedure: as §1, §2, §3

[11] = tested on: Leptin; experiment: Real-time PCR gene expression in peripheral tissues: leptin; conditions: C57bl6j mice, high fat diet, 100 mg/kg/body weight in diet, 5 weeks
Procedure: as §1, §4, §5, §6, §7

[12] = tested on: Adiponectin; experiment: Real-time PCR gene expression in peripheral tissues: adiponectin; conditions: epidydimal adipose tissue; C57bl6j mice, high fat diet, 100 mg/kg/body weight in diet, 5 weeks
Procedure: as §1, §4, §5, §8, §9

SMILES: CCCCCCCC/C=C\CCCCCCCC(=O)N[C@H](C)CO [KDS 5104, (Z)—(R)-9-octadecenamide, N-(2-hydroxyethyl, 1-methyl)]
- ACO l, ratio of RNA levels relative to control mice [1]: 1.15
- CB1 at ep, ratio of RNA levels relative to control mice ([2]; epidydimal adipose tissue): −1.48
- CB1 at per, ratio of RNA levels relative to control mice ([2]; peritoneal adipose tissue): −3.00
- CB1 i, ratio of RNA levels relative to control mice ([2]; proximal intestine): −1.25
- overall gene expression pattern (multivariate statistical analysis) [3]: significant shift
- visfatin at ep, ratio of RNA levels relative to control mice ([4]; epidydimal adipose tissue): −1.08
- visfatin at per, ratio of RNA levels relative to control mice ([4]; peritoneal adipose tissue): −1.10
- SREBP1c at ep, ratio of RNA levels relative to control mice ([5]; epidydimal adipose tissue): 1.00
- SREBP1c l, ratio of RNA levels relative to control mice ([5]; liver): 1.47
- SREBP1c at per, ratio of RNA levels relative to control mice ([5]; peritoneal adipose tissue): −1.35
- UCP2 m, ratio of RNA levels relative to control mice [6]: 1.11
- PCSK9 l, ratio of RNA levels relative to control mice [7]: 1.34
- SCD 1 at ep, ratio of RNA levels relative to control mice ([8]; epidydimal adipose tissue): 1.24
- SCD1 l, ratio of RNA levels relative to control mice ([8]; liver): −1.91
- SCD 1 at per, ratio of RNA levels relative to control mice ([8]; peritoneal adipose tissue): 1.51
- FAAH at ep, ratio of RNA levels relative to control mice ([9]; epidydimal adipose tissue): 9.71
- FAAH at per, ratio of RNA levels relative to control mice ([9]; peritoneal adipose tissue): 3.82
- FAAH i, ratio of RNA levels relative to control mice ([9]; proximal intestine): 1.28
- SREBP2 l, ratio of RNA levels relative to control mice [10]: 1.13
- leptin at ep, ratio of RNA levels relative to control mice ([11]; epidydimal adipose tissue): 1.35
- leptin at per, ratio of RNA levels relative to control mice ([11]; peritoneal adipose tissue): −1.32
- leptin s, ratio of RNA levels relative to control mice ([11]; stomach): −1.02
- adiponectin at ep, ratio of RNA levels relative to control mice [12]: −1.02
